In patent publication US7871978B2, “Bone tropic peptides” (University of Virginia Patent Foundation, priority 2004, dated 2011):

How the values were obtained:
[1] = tested on: Unicortical femoral defects; assay: Peptide-mediated osteogenesis in cortical bone defects (Example 8); format: in vivo, Fisher 344 rats; details: 100 mM peptide in gelfoam, two weeks postoperatively; for Effectiveness at stimulating osteogenesis and cortical bone repair: versus gelfoam+PBS
Experimental: In an in vivo study, all 13 peptides at a concentration of 100 mM were tested for their ability to potentiate osteogenesis. A gelfoam cylinder 1.5 mm in diameter 2 mm in length was used as carrier for the peptides. Unicortical femoral defects 1.5 mm in diameter were created bilaterally in Fisher 344 rats; the left femoral defect was filled with gelfoam+PBS (Control), and the right femur with gelfoam+peptide. The samples were harvested and examined two weeks postoperatively. To examine the effect of peptide concentration on cortical bone regeneration, peptide L7 (SEQ ID NO:5) was used at 1, 5, and 20 mM. […] The time course of cortical bone repair with 20 mM L7 was examined at 5, 10, 15, and 20 days.

[2] = tested on: bone and bone marrow; assay: In vivo biopanning with 12-mer peptide phage display library; design: species or system BALB/c mice; details: for PERCENT FREQUENCY: phage eluted from bone and bone marrow; for PHAGE SEQUENCE FREQUENCY (number of times the sequence was found in a group of plaques): phage eluted from bone and bone marrow after repeated rounds
Source text: The Ph.D.-12 Phage Display Peptide Library Kit (New England Biolabs, Beverly, Mass.) used in this study is based on a combinatorial library of random peptide 12-mers fused to a minor coat protein (pIII). […] The peptide is followed by a short spacer of four amino acid residues, the first three residues of which are glycine and the fourth of which is serine, and then the wild-type III sequence. The library consists of approximately 2.7×10^9 electroporated sequences, amplified once to yield approximately 55 copies of each sequence.
For in vivo biopanning, BALB/c mice 8 weeks of age were injected 3.4×10^10 pfu of phage into the heart. The animals were euthanized after 5 minutes, and the tissues (bone, bone marrow, kidney, liver, and spleen) were collected for analysis. The bound phage was eluted according the manufacturer's instructions. The eluted phage was titered, amplified, purified, and injected again at the same concentration.
The frequency of each peptide in bone and bone marrow was compared with its location in other tissues such as liver, kidney, lung, spleen, and brain. Thirteen unique peptide sequences eluted from bone and marrow were identified were identified by sequencing phage DNA. The peptides were synthesized using the polystyrene solid support on a Protein Technologies Symphony Multiple Channel Synthesizer.

[3] = tested on: bovine aortic endothelial cells; assay: Effect of peptides on adherent bovine aortic endothelial cells on fibronectin or collagen; format: cell-based; details: 0.1M biotinylated peptide, 1 hour; cells adhered four hours on fibronectin or collagen
Experimental: Peptides from the phage display project were added to bovine aortic endothelial cells in culture. The endothelial cells had adhered to a surface coated with collagen or with fibronectin.
Experiment 1: Bovine aortic endothelial cells were plated on glass slides that were coated either fibronectin or collagen. The cell density was 5,000 cells/well. After the cells adhered for four hours, 0.1M of biotinylated peptide was added to each well. The following peptides were used: L1, L2, L5, L6, L7, L12, L13, L14, L19, R1, R3, and R8.
To perform this experiment, the media was removed and the cells were rinsed with 1×PBS plus 1% BSA three times. Peptides were diluted in 1×PBS plus 1% BSA, added to cells and incubated for 1 hour. The cells were rinsed three times with 1% BSA in PBS, and fixed with 2% parafomaldehyde. Aldehyde groups were blocked with 0.2 M HCl-glycine in PBS, the cells were rinsed three times with 1% BSA in PBS and ExtrAvidin-FITC (1:200 dilution) was added and incubated overnight at 4° C. The cells were rinsed three times with 1% BSA in PBS. The chambers and the gasket were removed from each slide, Vectashield was added, covered and viewed on a Nikon microscope. Images were acquired using a Coolsnap digital camera and Metavue software. […]
Experiment 3: The cells were adherent for about 6 hours and peptides at various concentrations were added to the cells. The concentrations of each of the peptides used in this experiment were: 0.1M, 0.01M, 0.001M and 0.0001M biotinylated peptide. The following peptides were tested: L1, L5, L6, L7, L13, L14, R1, R3, R8, DIP1 and PBS control (SEQ ID NOs:1, 3, 4, 5, 8, 9, 11, 13, 14, and 29).

[4] = tested on: bone and marrow tissue sections (mouse femur, rib); assay: Biotinylated peptide binding to bone/marrow tissue sections, Avidin-FITC fluorescence
Experimental: Methods: Four-week old Swiss Webster mice were euthanized; the femurs were excised and decalcified in 0.25M EDTA in PBS solution for 5 days, and washed in PBS for 24 hours. The femoral shafts were obtained by cutting off the proximal and distal ends of the femur. The femoral shafts were placed in Tissue-Tek O.C.T. Compound (Sukura Finetek, Torrance, Calif.) and frozen at −20° C. overnight. Sections were cut at 10 μm serially with a cryomicrotome, rinsed with 1% BSA in PBS three times. To block non-specific reaction sections were incubated with Avidin/Biotin Blocking Kit (Vector Laboratories, Inc. Burlingame, Calif.) according to the manufacturer's instructions. Following another rinse with PBS, 150 μl 10 mM solution of each biotinylated peptide (L1, L2, L7, R1, R8) was added to the slides and incubated for 1 hour at room temperature. In negative controls, only PBS was added. After rewashes with 1% BSA, 150 μl of 1:50,000 dilution of Avidin-FITC was added to each slide and incubated overnight at 4° C.
The sections were washed with 1% BSA in PBS and mounted with Vectashield (Vector Laboratories Inc., Burlingame, Calif.). Fluorescence was visualized using a Nikon eclipse E600 microscope (Nikon, Melville, N.Y.) equipped with a 535 nm wavelength fluorescein filter. Images were obtained using a Sony DKC-5000 digital camera (Sony Electronics Inc.) and processed with Adobe Photoshop software (Adobe Systems Incorporated, San Jose, Calif.).
For localization of peptide binding to cells and tissue sections, biotinylated peptides were synthesized. Fluorescein-isothiocyanate (FITC) labeled Avidin was used to localize the peptides on cells in culture and in tissue sections in vitro by epiluminescence microscopy. In addition, the biotinylated peptides were detected at concentrations as low as 1 μM in slot blots.
Cryosections of decalcified femurs harvested from 4 week BALB/c mice were incubated with biotinylated peptide and Avidin-FITC. […] The distribution of fluorescence throughout the marrow was uneven. […] In control slides incubated with PBS without peptide, none of the cells could be detected by fluorescence (not shown). […]

[5] = BALB/c mouse decalcified femur cryosections, biotinylated peptide and Avidin-FITC
[6] = BALB/c mouse femur cryosections, biotinylated peptide
[7] = Swiss Webster mouse decalcified femur cryosections, 10 mM biotinylated peptide, 1 hour, Avidin-FITC
[8] = Swiss Webster mouse femur cryosections, 10 mM biotinylated peptide

Substance	Effectiveness at stimulating osteogenesis and cortical bone repair [1]	PERCENT FREQUENCY [2] [%]	PHAGE SEQUENCE FREQUENCY (number of times the sequence was found in a group of plaques) [2]	Effect on adherent BAEC (Experiment 1) [3]	Histological appearance of repair tissue in the defect [1]	Fluorescence detected in femur sections incubated with peptide [4, 5]	Cell shape preferentially recognized by peptide [4, 6]	Extent of marrow cells detected by fluorescence [4, 6]	Fluorescence detected in femur sections incubated with peptide [4, 7]	Cell shape preferentially recognized by peptide [4, 8]	Extent of marrow cells detected by fluorescence [4, 8]
ASN-ASN-VAL-SER-GLN-LYS-TRP-GLN-GLN-ARG-LEU-ILE-GLY-GLY-GLY-SER (NNVSQKWQQRLIGGGS; listed as Homo sapiens) [Peptide L6]	most effective at stimulating osteogenesis and cortical bone repair	17.9	5/28	the cells had lifted completely and most of the cells disappeared from the surface of the slides, leaving a lot of cell debris							
GLY-ILE-HIS-VAL-PRO-TRP-MET-PRO-PRO-VAL-ALA-PHE-GLY-GLY-GLY-SER (GIHVPWMPPVAFGGGS; listed as Homo sapiens) [Peptide L11]		3.3	1/30								
LEU-LEU-ALA-ASP-THR-THR-HIS-HIS-ARG-PRO-TRP-THR-GLY-GLY-GLY-SER (LLADTTHHRPWTGGGS; listed as Homo sapiens) [Peptide L2]	least effective for cortical bone repair	32.1	9/28	no effect, with results similar to PBS	a considerable amount of gelfoam remaining in the defects, with thinner and more loosely organized cortical bone	Fluorescence was detected	recognized cells with mostly irregular shapes	did not detect as many cells	Fluorescence was detected	recognized cells with mostly irregular shapes	did not detect as many cells
LEU-PRO-TRP-THR-GLU-PRO-SER-PHE-TRP-ARG-THR-PRO-GLY-GLY-GLY-SER (LPWTEPSFWRTPGGGS; homo sapiens) [Peptide D1P1]				no effect, with results similar to PBS							
LYS-GLU-ILE-PRO-PRO-ILE-PRO-LEU-LEU-ALA-PRO-SER-GLY-GLY-GLY-SER (KEIPPIPLLAPSGGGS; listed as Homo sapiens) [Peptide L5]	virtually no stimulatory effect on osteogenesis	17.9	5/28	the cells had lifted completely and most of the cells disappeared from the surface of the slides, leaving a lot of cell debris	while some ossification and cortical bone regeneration has occurred, considerable amounts of gelfoam remains in the defect						
SER-SER-THR-LEU-LYS-THR-PHE-PHE-GLY-PHE-PRO-ASP-GLY-GLY-GLY-SER (SSTLKTFFGFPDGGGS; listed as Homo sapiens) [Peptide L14]	least effective for cortical bone repair	40.0	12/30	no effect, with results similar to PBS	a considerable amount of gelfoam remaining in the defects, with thinner and more loosely organized cortical bone						
THR-MET-ARG-ASN-PRO-ILE-THR-SER-LEU-ILE-SER-VAL-GLY-GLY-GLY-SER (TMRNPITSLISVGGGS; listed as Homo sapiens) [Peptide L1]	least effective for cortical bone repair	28.6	8/28	the cells lifted and formed clusters that stained intensely	a considerable amount of gelfoam remaining in the defects, with thinner and more loosely organized cortical bone	Fluorescence was detected	recognized the round cells preferentially	did not detect as many cells	Fluorescence was detected	recognized the round cells preferentially	did not detect as many cells
